Target: RecA (Escherichia coli, UniProt P0A7G6)
Assay: biochemical

Chain of RecA (P0A7G6 2-353): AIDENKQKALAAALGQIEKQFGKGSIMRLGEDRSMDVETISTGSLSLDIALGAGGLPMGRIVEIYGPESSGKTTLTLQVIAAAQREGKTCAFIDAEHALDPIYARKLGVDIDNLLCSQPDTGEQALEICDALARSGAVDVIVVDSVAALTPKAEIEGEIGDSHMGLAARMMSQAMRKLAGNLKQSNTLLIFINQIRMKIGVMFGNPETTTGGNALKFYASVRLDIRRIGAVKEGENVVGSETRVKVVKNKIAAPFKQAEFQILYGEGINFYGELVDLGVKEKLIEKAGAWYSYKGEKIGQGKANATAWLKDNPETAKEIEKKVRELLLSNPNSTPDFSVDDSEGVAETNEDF

Question: With `CN1CCN(c2ccc(N3C(=O)C=CC3=O)cc2)CC1` [AHU3] as the compound, how does the IC50 read?
Answer: 7.72 µM
